Read-outs that look alike come from different tables or passages of the source. Ends that are not written are not given here. * marks the point of attachment. Biotin = O=C1N[C@H]2[C@H](CS[C@H]2CCCCC(=O)*)N1
Key:
B220+ BALB/c splenocytes = conditions: pre-incubation with 10-fold molar excess unlabeled tetramer, 30 min on ice
Description: Staining was conducted at 4° C. in several sequential steps in FACS staining buffer (1×PBS with 2% FCS, 0.1% NaN3), washing twice between steps. First, cells were incubated with v-amine live/dead dye for 15 min. Next, cells were stained with APC-labeled tetramers for 30 min. Where applicable, this was preceded by addition of cold tetramer at 10 fold molar excess for 1 h. Finally, cells were stained with Fc block for 30 min, followed by incubation with combinations of primary antibody cocktails for 30 min, and secondary staining with SA-Texas Red for 30 min.

[1] = tested on: naïve splenic B cells, BALB/c congenic strain bearing the IgH^b allotype
Description: (§1) Mice. Female C57BL/6, BALB/c, B6Igh^a, and CB17 (BALBc Igh^b) inbred mouse strains (8-12 weeks of age) were purchased from Charles River Laboratories. All mice were housed in the Duke University Animal Facility in a pathogen-free environment with 12 hour light/dark cycles at 20-25° C. under AALAC guidelines and in accordance with all Institutional Animal Care and Use Committee and Duke University Institutional Biosafety Committee-approved animal protocols.
(§2) Antibodies and flow cytometry. Immunofluorescent staining of single cell suspensions (≧2×10^6) was conducted using pre-mixed combinations of fluorochrome-labeled antibodies and APC-conjugated B cell tetramers at empirically-determined optimal concentrations. All antibodies were from BD unless otherwise stated. […] Other reagents included biotinylated antibodies against dump channel markers: Thy1 (Ox7; Abcam), F4/80 (BM8; Abcam), CD11c (clone HL3), Gr-1 (clone RB6-8C5), TER-119, and NK-1.1 (clone PK136), secondary staining SA-Texas Red conjugate; v-amine live/dead violet dye (Molecular Probes), and Fc block (anti-CD16/32; clone 2.4G2).
(§3) Staining was conducted at 4° C. in several sequential steps in FACS staining buffer (1×PBS with 2% FCS, 0.1% NaN3), washing twice between steps. First, cells were incubated with v-amine live/dead dye for 15 min. Next, cells were stained with APC-labeled tetramers for 30 min. […]

[2] = tested on: naïve splenic B cells, C57BL/6 congenic strain bearing the IgH^a allotype
Description: as §1, §2, §3

[3] = tested on: CD19+ B cells of HIV-1 infected subject
Description: Staining of bulk populations for the sorts. Cells from uninfected or HIV-1 infected patients were obtained by leukopheresis under an IRB-approved protocol and were rested in culture overnight in 10% FBS in RPMI-1640 at 37° C. in 5% CO2. Rested cells were enriched for B cells by depletion of non-B cells using magnetic bead separation (BD Biosciences, Mountain View, Calif.). […] Cells were sorted on a BD FACS Aria (BD Biosciences, Mountain View, Calif.) into CD3^− CD14^− CD16^− CD19^+ tetramer and CD3^− CD14^− CD16^− CD19^+ tetramer^+ pools and also as single cells into a 96-well plates containing RNA extraction buffer.

13H11 cells = conditions: flow cytometry
Description: (§4) Use of antibody-coated beads and cell lines for tetramer quality control. Tetramer stocks were diluted to twice the desired final concentration in PBS containing 1% BSA. An equal volume of beads or cells at 5×10^5 up to 2×10^6 per sample were mixed with tetramer and incubated (4° C.×30 min). Beads or cells were washed with PBS+1% BSA before being fixed in 2% methanol-free formaldehyde (Polysciences, Inc, Warrington, Pa.) in PBS. Samples were stored at 4° C. prior to being analyzed by flow cytometry (BD LSR II, Becton Dickinson, Mountain View, Calif.). Data were analyzed using FlowJo (Tree Star, Ashland, Oreg.). For tetramer titration 40-80 ng tetramer per 10^6 cells/beads was serially diluted over 8-12 points. Optimal concentrations determined by this method were used for subsequent experiments. For cold competition experiments the incubation step was performed by staining with 10-fold excess unlabeled tetramer (4° C.×30 min) prior to the addition of APC-labeled tetramer. For cell dilution experiments, a mixture of mAb cell lines was made and then 1:10 serial dilutions of cells prepared. For cross competition experiments, mixtures of cells were prepared and then stained singly with anti-IgG reagents or tetramer, or the cells were doubly stained with both reagents either sequentially or concurrently.

[4] = tested on: mixture of anti-gp41 MPER 13H11 cells and anti-gp120 V3 F39F cells
Description: as §4

[5] = tested on: mAb 13H11 (non-neutralizing anti-gp41 MPER); conditions: SPR, mAb 13H11 captured
Description: (§5) Surface Plasmon Resonance (SPR) measurements of tetramer binding to peptide epitopes. Tetramer binding assays were carried out on a BIAcore 3000 (BIAcore/GE Healthcare, Piscataway, N.J.) instrument using mAbs against each specific B cell epitope.
(§6) Each mAb (about 1000 RU) was first captured on anti-human Fc mAb (Pierce, Rockford, Ill.) immobilized on a CM5 sensor chip. Approximately 3000 RU of anti-human Fc mAb was covalently coupled to each flow cell of the sensor chip as described before (Alam et al, Journal of Immunology 178:4424-4435 (2007)). Each B cell tetramer was injected over its epitope specific mAb or a control surface immobilized with irrelevant mAb. For each tetramer binding curve, non-specific binding signals obtained from the control surface were subtracted. The binding assay was monitored at 25° C. and using PBS, pH 7.4, as the running buffer. The BIAevaluation 3.0 software (BIAcore/GE Healthcare, Piscataway, N.J.) was used for SPR binding data analyses.

[6] = tested on: mAb 2F5 (neutralizing anti-gp41 MPER); conditions: SPR, mAb 2F5 captured
Description: as §5, §6

[7] = tested on: B Cell Receptor of purified naïve BALB/c splenic B cells; conditions: 10 μg/ml anti-Ig, 37° C., by 15 min
Description: B cell purification, BCR internalization assay, and microscopy of BCR cap formation. Splenic B cells were purified by negative depletion of CD43-expressing non B cells with anti-mouse CD43 MACS beads (Miltenyi Biotechnology) resulting in fractions >90% B cells.
For analysis of BCR internalization by flow cytometry, purified B cells were pre-incubated on ice for 30 min with either a 95:5 unlabeled/R-PE-labeled mixture of 10 μg/ml goat anti-mouse-IgM+IgG (H+L) F(ab)2 fragments (Jackson ImmunoResearch laboratories). To remove excess reagent, cells were then washed, resuspended in DMEM 10% FCS, and stimulated by warming to 37° C. (or at 4° C. as a control) for the indicated time points. […] Percent internalization for tetramers was calculated on gp41 MPER+B220+ subsets (the gp41 MPER gate set based on the FMO control) by the formula [% gp41 MPER (To)−% gp41 MPER (Tn)]/% Sp62 (To)×100. In other experiments, cells were pre-incubated with either 5 mg/ml mannan, 125 mM α-methyl-mannopyranoside (Sigma-Aldrich), or 10 μg/ml unlabeled goat anti-mouse-IgM+IgG (H+L) F(ab)2 fragments, prior to staining with APC-labeled tetramers.

## Biotin-GGGQQEKNEQELLELDKWASLWN [gp41 MPER tetramer]
B220+ BALB/c splenocytes
  inhibition of binding of APC-labeled gp41 MPER-tetramer: > 90%
[1]
  tetramer binding to splenic B cells: completely loses gp41 2F5 MPER binding
[2]
  tetramer binding to splenic B cells: restores gp41 2F5 MPER binding
[3]; before sorting, non-B cell depleted PBMC
  tetramer positive cells of CD19+ B cells: 0.15%
[3]; reanalysis after sorting of tetramer positive gate
  tetramer positive cells of CD19+ B cells: 45.3%
13H11 cells
  binding to mAb cell line: bound
[4]; mixture diluted tenfold with F39F cells
  cells stained with tetramer: 1.47%
[4]; mixture further diluted tenfold with F39F cells
  cells staining over background: 0.12%
[4]; mixture of 85% F39F cells and 15% 13H11 cells
  cells stained with tetramer: 15.1%
[5]
  koff: 8.1 s^−1 × 10^−3
  kon: 206 M^−1s^−1 × 10^3
[6]
  koff: 0.37 s^−1 × 10^−3
  kon: 174 M^−1s^−1 × 10^3
[7]
  tetramer downmodulation: > 80%

From patent US20090317419A1, “Tetramers” (Duke University, priority 2008, published 2009)
